{"source": "patent US8748568B2", "about": "“Isolated A-type FHF N-terminal domain peptides and methods of use” (Research Foundation of The City University of New York, priority 2009, dated 2014)", "molecules": {"B1": {"name": "FHF4B: B-type fibroblast growth factor homologous factor expressed from a DNA expression vector (protein)", "chain": "MVKPVPLFRRTDFKLLLCNHKDLFFLRVSKLLDCFSPKSMWFLWNIFSKGTHMLQCLCGKSLKKNKNPTDPQLKGIVTRLYCRQGYYLQMHPDGALDGTKDDSTNSTLFNLIPVGLRVVAIQGVKTGLYIAMNGEGYLYPSELFTPECKFKESVFENYYVIYSSMLYRQQESGRAWFLGLNKEGQAMKGNRVKKTKPAAHFLPKPLEVAMYREPSLHDVGETVPKPGVTPSKSTSASAIMNGGKPVNKSKTT"}, "B2": {"name": "FHF2B: B-type fibroblast growth factor homologous factor expressed from a DNA expression vector (protein)", "chain": "MALLRKSYSEPQLKGIVTKLYSRQGYHLQLQADGTIDGTKDEDSTYTLFNLIPVGLRVVAIQGVQTKLYLAMNSEGYLYTSELFTPECKFKESVFENYYVTYSSMIYRQQQSGRGWYLGLNKEGEIMKGNHVKKNKPAAHFLPKPLKVAMYKEPSLHDLTEFSRSGSGTPTKSRSVSGVLNGGKSMSHNEST"}, "B3": {"name": "FHF1B: B-type fibroblast growth factor homologous factor expressed from a DNA expression vector (protein)", "chain": "MESKEPQLKGIVTRLFSQQGYFLQMHPDGTIDGTKDENSDYTLFNLIPVGLRVVAIQGVKASLYVAMNGEGYLYSSDVFTPECKFKESVFENYYVIYSSTLYRQQESGRAWFLGLNKEGQIMKGNRVKKTKPSSHFVPKPIEVCMYREPSLHEIGEKQGRSRKSSGTPTMNGGKVVNQDST"}}, "key": {"TTX-resistant Nav1.6 [1]": {"test_system": "TTX-resistant Nav1.6", "assay": "Whole cell voltage clamp of Nav1.6 currents in Neuro2A cells: long-term inactivation through repeated depolarization cycles", "format": "cell-based", "description": "[…]. Nav1.6 currents were analyzed in cells without FHFs (upper panels) or after transient transfection with a DNA vector expressing full-length FHF2A protein (lower panels). The holding voltage was −90 mV. Cells were subjected to two 6 millisecond depolarizations at 0 mV separated by −90 mV interpulse recovery periods of 0.5 to 20 msec (left panels). All 40 command sweeps are shown.\nNeuro2A cells expressing TTX-resistant Nav1.6 were transfected with DNA expression vectors for FHF1A, FHF1B, FHF2A, FHF2B, or FHF4B. Transfected cells in the presence of TTX were subjected to four 16 millisecond depolarization cycles (0 mV) separated by 40 millisecond recovery periods (−90 mV), and peak inward Nav1.6-mediated sodium currents were recorded for each depolarization.\nA Neuro2A cell expressing TTX-resistant Nav1.6 and transfected to express FHF2A was analyzed for the voltage dependence of steady state inactivation, long-term inactivation, and activation, using specific voltage command protocols. For steady state inactivation, cells were held at different “test command” voltages for 60 milliseconds followed immediately by further depolarization to 0 mV; the residual peak current derives from channels not inactivated (i.e. still available). For long term inactivation, cells were held at different “test command” voltages for 60 milliseconds, with each test command followed by 40 millisecond recovery at −90 mV before depolarization to 0 mV; peak current derives from channels that have not undergone long-term inactivation. For activation, cells were depolarized to different “test command” voltages, and peak inward currents were converted to percent maximum conductance to reflect percentage of channels transiently activated.\n(§1) Neuro2A cells expressing TTX-resistant Nav1.6 were analyzed for TTX-resistant sodium currents following whole cell patch clamp using pipette solution containing peptide corresponding to N-terminal residues 2-21 of FHF2A (referred to as ANTD, for A-type N-terminal domain). Peptide injected cells were subjected to four 16 millisecond depolarization cycles (0 mV) separated by 40 millisecond recovery periods (−90 mV), and peak inward Nav1.6-mediated sodium currents were recorded for each depolarization."}, "TTX-resistant Nav1.6 [2]": {"test_system": "TTX-resistant Nav1.6", "assay": "Voltage dependence of steady state inactivation of Nav1.6 in Neuro2A cells", "format": "cell-based", "description": "A Neuro2A cell expressing TTX-resistant Nav1.6 and transfected to express FHF2A was analyzed for the voltage dependence of steady state inactivation, long-term inactivation, and activation, using specific voltage command protocols. For steady state inactivation, cells were held at different “test command” voltages for 60 milliseconds followed immediately by further depolarization to 0 mV; the residual peak current derives from channels not inactivated (i.e. still available). For long term inactivation, cells were held at different “test command” voltages for 60 milliseconds, with each test command followed by 40 millisecond recovery at −90 mV before depolarization to 0 mV; peak current derives from channels that have not undergone long-term inactivation. […]\nas §1"}, "[3]": {"test_system": "cerebellar granule neurons", "assay": "Voltage clamp and current clamp of cultured cerebellar granule neurons", "format": "cell-based, Mouse", "details": "1 mM peptide injected", "description": "Mouse cerebellar granule neurons were cultured for 14 days under conditions that promoted their maturation to a fully excitable state. These neurons were Whole cell patched and subjected to voltage clamp and current clamp protocols. In voltage clamp, neurons were depolarized four times for 16 milliseconds to 0 mV with 40 millisecond interpulse recoveries at −90 mV (left panels). In current clamp, positive current injection for 800 milliseconds was used to trigger firing of action potentials. A range of currents were tested, and only the recordings from currents giving highest frequency and amplitude of action potentials are shown (right panels)."}, "[4]": {"test_system": "mutant VGSC in which the fast inactivation particle was disabled (Nav1.6)", "assay": "Long-term inactivation of mutant VGSC with disabled fast inactivation particle, whole cell voltage clamp", "format": "cell-based", "details": "single cycle of membrane depolarization", "description": ". Nav1.6 currents were analyzed in cells without FHFs (left panels—FIG. 7) or after transient transfection with a DNA vector expressing full-length FHF2A protein (right panels—FIG. 7)."}, "[5]": {"details": "four 16 msec depolarization cycles at 0 mV separated by 40 msec recoveries at -90 mV, cells transfected with FHF expression vector"}}, "note": "Entries after “also recorded” stand apart in the source; their conditions may differ.", "data": [{"molecule": "AAAIASSLIRQKRQAREREK [ANTD peptide, peptide corresponding to N-terminal residues 2-21 of FHF2A]", "values": [{"measurement": "long-term inactivation of Nav1.6", "setting": "TTX-resistant Nav1.6 [1]; 0.5 mM peptide in pipette solution, four 16 msec depolarization cycles, 40 msec recoveries", "result": "induced long-term inactivation, albeit to lesser degree"}, {"measurement": "long-term inactivation of Nav1.6", "setting": "TTX-resistant Nav1.6 [1]; 1 mM peptide in pipette solution, four 16 msec depolarization cycles, 40 msec recoveries", "result": "robust accumulation into long-term inactivation"}, {"measurement": "dose dependence of peptide-induced long-term inactivation", "setting": "TTX-resistant Nav1.6 [1]; 1 mM versus 0.5 mM", "result": "dose dependent"}, {"measurement": "onset of long-term inactivation", "setting": "TTX-resistant Nav1.6 [1]; 1 millimolar peptide, compared with native protein", "result": "faster onset of long-term inactivation than the native protein"}, {"measurement": "effect on voltage dependence of steady state (fast) inactivation of Nav1.6", "setting": "TTX-resistant Nav1.6 [2]", "result": "no significant effect"}, {"measurement": "action potentials generated upon current injection", "setting": "[3]; current clamp, 800 msec positive current injection", "result": "only a single action potential"}, {"measurement": "inward sodium currents", "setting": "[3]; voltage clamp, four 16 msec depolarizations to 0 mV, 40 msec recoveries at -90 mV", "result": "decrease with each cycle of depolarization"}, {"measurement": "outward potassium currents", "setting": "[3]; voltage clamp, four depolarization cycles", "result": "unaffected"}, {"measurement": "channels driven into long-term inactivation", "setting": "[4]", "result": "nearly all"}]}, {"molecule": "FHF2A: full-length FHF2A protein, fibroblast growth factor homologous factor, expressed from a transfected DNA vector (AAAIASSLIRQKRQAREREK)", "values": [{"measurement": "percentage of channels that undergo long-term inactivation", "setting": "TTX-resistant Nav1.6 [1]; 60 msec test command, 40 msec recovery at -90 mV, then 0 mV, not increased by further depolarization", "result": "35-40%"}, {"measurement": "long-term inactivation of Nav1.6", "setting": "TTX-resistant Nav1.6 [1]; [5]", "result": "induce long-term inactivation"}, {"measurement": "long-term inactivation of Nav1.6", "setting": "TTX-resistant Nav1.6 [1]; four 16 msec depolarization cycles at 0 mV separated by 40 msec recoveries at -90 mV, cells transfected with FHF expression vector, listed as FHF2A protein", "result": "channels accumulate into a long-term inactivated state with each depolarization cycle; also recorded: induces both long-term inactivation"}, {"measurement": "voltage at which long-term inactivation occurs relative to steady state inactivation", "setting": "TTX-resistant Nav1.6 [1]; test command voltage protocols, FHF2A-transfected cell", "result": "far more depolarized voltage than steady state inactivation"}, {"measurement": "fraction of channels that do not rapidly recover from inactivation", "setting": "TTX-resistant Nav1.6 [1]; two 6 msec depolarizations at 0 mV, -90 mV interpulse recovery 0.5 to 20 msec, cells transfected with FHF vector", "result": "approximately one-third"}, {"measurement": "effect on voltage dependence of steady state (fast) inactivation of Nav1.6", "setting": "TTX-resistant Nav1.6 [2]", "result": "depolarizing shift"}, {"measurement": "channels driven into long-term inactivation", "setting": "[4]", "result": "nearly all channels being driven into long-term inactivation"}]}, {"molecule": "B1", "values": [{"measurement": "long-term inactivation of Nav1.6", "setting": "TTX-resistant Nav1.6 [1]; [5]", "result": "do not"}]}, {"molecule": "B2", "values": [{"measurement": "long-term inactivation of Nav1.6", "setting": "TTX-resistant Nav1.6 [1]; [5]", "result": "do not"}]}, {"molecule": "B3", "values": [{"measurement": "long-term inactivation of Nav1.6", "setting": "TTX-resistant Nav1.6 [1]; [5]", "result": "do not"}]}]}
